We go through ten compounds from US8445690B2, “Aminothiazolones as estrogen related receptor-alpha modulators” (Janssen Pharmaceutica NV, priority 2010, dated 2013).

This test addresses T1, ERR1 (also known as ERR-α or ERR-1) (Homo sapiens, UniProt P11474).
T1 sequence (P11474 193-421 limits assumed): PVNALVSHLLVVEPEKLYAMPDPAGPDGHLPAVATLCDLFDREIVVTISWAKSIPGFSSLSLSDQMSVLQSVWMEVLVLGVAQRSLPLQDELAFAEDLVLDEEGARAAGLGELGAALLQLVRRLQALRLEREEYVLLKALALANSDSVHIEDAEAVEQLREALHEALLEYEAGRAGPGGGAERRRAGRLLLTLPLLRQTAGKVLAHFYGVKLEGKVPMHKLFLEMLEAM
The test can be described thus: TR-FRET assay: disruption of co-activator peptide (GST-hSRC2) binding to 6His-tagged ERR1 LBD. Type of test: biochemical. Conditions: 6 nM ERR1LBD, 6 nM GST-SRC-2 peptide, 25° C., 4-18 hours; average of 3 independent experiments. The protocol:
Time-Resolved Fluorescence Resonance Energy Transfer (TR-FRET) experiments were performed to examine the functional response of ERR1 (also known as ERR-α or ERR-1) ligands. The TR-FRET assay described herein relied on the conformation of ERR1 for binding to a co-activator peptide: when a test compound binds to ERR1 and alters its conformation, it can disrupt the binding of the co-activator peptide. The components of this homogeneous secondary assay included: the ^6His-tagged-ERR1LBD, a GST-labeled-hSRC2 co-activator polypeptide and a fluorescent donor/acceptor pair from CIS bio international htrf/bioassays (Bedford, Mass.) using both an α-GST Europium Cryptate (Eu) label and an α^6His-XL665 (allophycocyanin) fluorophore.
For TR-FRET measurements, the reaction was buffered in 25 mM Tris pH 8, 2.5 mM Hepes, 20 mM KCl, 1 mM DTT, and 0.05 mg/mL BSA (-lipids). The final concentrations of reagents were 6 nM of ERR1LBD, 6 nM GST-SRC-2 peptide, 30 nM Eu cryptate, and 7.5 nM XL665. Reactions were allowed to reach equilibrium at 25° C. for 4-18 hours before collecting data on the Analyst from LJL Biosystems (Molecular Devices Sunnyvale, Calif.). As a time-resolved method, the samples were excited at […] and emission was collected for 1 ms at both 615 and 665 nm with delays of 400 and 75 μs, respectively. Dose response curves were fitted using a hyperbolic equation and the data reported is the average of 3 independent experiments.
Compounds listed in Tables II below were tested in the above assay, and they are all active modulators of ERR1.
As usually defined, the EC50 is the concentration at which the effect is half-maximal. The compound `COc1ccc(Cn2ncc3cc(/C=C4\SC(NCCN5CCOCC5)=NC4=O)ccc32)c(C(F)(F)F)c1` [Compound 5, 5-[1-(4-Methoxy-2-trifluoromethyl-benzyl)-1H-indazol-5-ylmethylene]-2-(2-morpholin-4-yl-ethylamino)-thiazol-4-one] showed an EC50 of 3.2 nM. The same measure for `COc1ccc(Cn2ncc3cc(/C=C4\SC(NCCCN5CCCC5=O)=NC4=O)ccc32)c(C(F)(F)F)c1` [Compound 7, 5-[1-(4-Methoxy-2-trifluoromethyl-benzyl)-1H-indazol-5-ylmethylene]-2-[3-(2-oxo-pyrrolidin-1-yl)-propylamino]-thiazol-4-one]: 4.4 nM.

Compound `CN1CCN(CCNC2=NC(=O)/C(=C/c3ccc4c(cnn4Cc4ccc(Cl)cc4C(F)(F)F)c3)S2)CC1` [Compound 39, 5-[1-(4-Chloro-2-trifluoromethyl-benzyl)-1H-indazol-5-ylmethylene]-2-[2-(4-methyl-piperazin-1-yl)-ethylamino]-thiazol-4-one] had an EC50 of 6.6 nM. For `O=C1N=C(NCc2c[nH]nn2)S/C1=C\c1ccc2c(cnn2Cc2ccc(C(F)(F)F)cc2C(F)(F)F)c1` [Compound 43, 5-[1-(2,4-Bis-trifluoromethyl-benzyl)-1H-indazol-5-ylmethylene]-2-[(1H-[1,2,3]triazol-4-ylmethyl)-amino]-thiazol-4-one] the value was 19 nM; for `O=C1N=C(NCc2c[nH]nn2)S/C1=C\c1ccc2c(cnn2Cc2ccc(Cl)cc2C(F)(F)F)c1` [Compound 42, 5-[1-(4-Chloro-2-trifluoromethyl-benzyl)-1H-indazol-5-ylmethylene]-2-[(1H-[1,2,3]triazol-4-ylmethyl)-amino]-thiazol-4-one], 10 nM; for `O=C1N=C(N[C@@H]2CN3CCC2CC3)S/C1=C\c1ccc2c(cnn2Cc2ccc(Cl)cc2C(F)(F)F)c1` [Compound 27, 2-(1-Aza-bicyclo[2.2.2]oct-3(S)-ylamino)-5-[1-(4-chloro-2-trifluoromethyl-benzyl)-1H-indazol-5-ylmethylene]-thiazol-4-one], 11 nM. The same measure for `O=C1N=C(NC(CO)CO)S/C1=C\c1ccc2c(cnn2Cc2ccc(Cl)cc2C(F)(F)F)c1` [Compound 38, 5-[1-(4-Chloro-2-trifluoromethyl-benzyl)-1H-indazol-5-ylmethylene]-2-(2-hydroxy-1-hydroxymethyl-ethylamino)-thiazol-4-one]: 56.8 nM; for `Cc1nnc(CNC2=NC(=O)/C(=C/c3ccc4c(cnn4Cc4ccc(Cl)cc4C(F)(F)F)c3)S2)[nH]1` [Compound 35, 5-[1-(4-Chloro-2-trifluoromethyl-benzyl)-1H-indazol-5-ylmethylene]-2-[(5-methyl-4H-[1,2,4]triazol-3-ylmethyl)-amino]-thiazol-4-one]: 11.2 nM; for `O=C1N=C(NC2(C(=O)O)CC2)S/C1=C\c1ccc2c(cnn2Cc2ccc(Cl)cc2C(F)(F)F)c1` [Compound 45, 1-{5-[1-(4-Chloro-2-trifluoromethyl-benzyl)-1H-indazol-5-ylmethylene]-4-oxo-4,5-dihydro-thiazol-2-ylamino}-cyclopropanecarboxylic acid]: 9.7 nM. For `O=C1N=C(NC2(C(=O)O)CC2)S/C1=C\c1ccc2c(cnn2Cc2ccc(C(F)(F)F)cc2C(F)(F)F)c1` [Compound 14, 1-{5-[1-(2,4-Bis-trifluoromethyl-benzyl)-1H-indazol-5-ylmethylene]-4-oxo-4,5-dihydro-thiazol-2-ylamino}-cyclopropanecarboxylic acid] the value was 6.5 nM.
